# Target: human FXR (NR1H4) (Homo sapiens (Human), UniProt Q96RI1)
# Test: Human FXR (NR1H4) Assay (Gal4 promoter driven luciferase reporter, Indigo Bioscience kit);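 as to Efficacy (%): 100% equals the efficacy of CDCA; efficacy normalized to CDCA set as 100%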
# Format: cell-based
# Conditions: for EC50: Human FXR (NR1H4) Assay, potency ranges; for Emax: read-out: Efficacy (%)
# Excerpt: ASSAYS Human FXR (NR1H4) Assay
# Determination of a ligand mediated Gal4 promoter driven transactivation to quantify ligand binding mediated activation of FXR. FXR Reporter Assay kit purchased from Indigo Bioscience (Catalogue number: IB00601) to determine the potency and efficacy of compound developed by Enanta that can induce FXR activation. The principle application of this reporter assay system is to quantify functional activity of human FXR. The assay utilizes non-human mammalian cells, CHO (Chinese hamster ovary) cells engineered to express human NR1H4 protein (referred to as FXR). Reporter cells also incorporate the cDNA encoding beetle luciferase which catalyzes the substrates and yields photon emission. Luminescence intensity of the reaction is quantified using a plate-reading luminometer, Envision. Reporter Cells include the luciferase reporter gene functionally linked to an FXR responsive promoter. Thus, quantifying changes in luciferase expression in the treated reporter cells provides a sensitive surrogate measure of the changes in FXR activity. […] The assay is according to the manufacturer's instructions. In brief, the assay was performed in white, 96 well plates using final volume of 100 uL containing cells with different doses of compounds. Retrieve Reporter Cells from −80° C. storage. Perform a rapid thaw of the frozen cells by transferring a 10 ml volume of 37° C. cell recovery medium into the tube of frozen cells. Recap the tube of Reporter Cells and immediately place it in a 37° C. water bath for 5-10 minutes. Retrieve the tube of Reporter Cell Suspension from the water bath. Sanitize the outside surface of the tube with a 70% alcohol swab, and then transfer it into the cell culture hood. Dispense 90 μl of cell suspension into each well of the 96-well Assay Plate. Transfer the plate into 37° C. incubator, allowing the cells adherent to the bottom of the well. Dilute compounds in Dilution Plate (DP), and administrate to cells at Assay Plate (AP). DMSO content of the samples was kept at 0.2%. Cells were incubated for additional 22 hours before luciferase activities were measured. Thirty minutes before intending to quantify FXR activity, remove Detection Substrate and Detection Buffer from the refrigerator and place them in a low-light area so that they may equilibrate to room temperature. Remove the plate's lid and discard all media contents by ejecting it into an appropriate waste container. Gently tap the inverted plate onto a clean absorbent paper towel to remove residual droplets. Cells will remain tightly adhered to well bottoms. Add 100 μl of luciferase detection reagent to each well of the assay plate. Allow the assay plate to rest at room temperature for at least 5 minutes following the addition of LDR. Set the instrument (Envision) to perform a single 5 second “plate shake” prior to reading the first assay well. Read time may be 0.5 second (500 mSec) per well.
# Chain of human FXR (NR1H4) (Q96RI1 whole entry, the tested form may be a part): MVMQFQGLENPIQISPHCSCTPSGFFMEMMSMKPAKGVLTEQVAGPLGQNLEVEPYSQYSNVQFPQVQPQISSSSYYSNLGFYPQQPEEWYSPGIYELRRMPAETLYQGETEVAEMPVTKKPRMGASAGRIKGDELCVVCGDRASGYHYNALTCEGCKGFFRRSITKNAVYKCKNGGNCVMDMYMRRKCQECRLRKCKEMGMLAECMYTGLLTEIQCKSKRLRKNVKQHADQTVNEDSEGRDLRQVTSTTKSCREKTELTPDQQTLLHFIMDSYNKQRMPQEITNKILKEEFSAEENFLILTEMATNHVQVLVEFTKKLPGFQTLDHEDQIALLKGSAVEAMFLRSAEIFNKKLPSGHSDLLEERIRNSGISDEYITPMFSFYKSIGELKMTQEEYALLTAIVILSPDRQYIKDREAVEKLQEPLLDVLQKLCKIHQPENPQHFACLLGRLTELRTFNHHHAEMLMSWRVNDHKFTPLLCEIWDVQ
SMILES,EC50 [nM],Emax [%]
CC[C@H]1[C@@H](O)[C@@H]2[C@H](CC[C@]3(C)[C@@H]([C@H](C)CCOC(=O)NS(C)(=O)=O)CC[C@@H]23)[C@@]2(C)CC[C@@H](O)C[C@@H]12 [Example 97],100 to 1000,245
CC[C@H]1[C@@H](O)[C@@H]2[C@H](CC[C@]3(C)[C@@H]([C@H](C)COC(=O)NS(=O)(=O)c4ccc(N5CCCCC5)cc4)CC[C@@H]23)[C@@]2(C)CC[C@@H](O)C[C@@H]12 [Example 9],< 100,208
CC[C@H]1[C@@H](O)[C@@H]2[C@H](CC[C@]3(C)[C@@H]([C@H](C)CCOC(=O)NS(=O)(=O)c4ccc(C(C)(C)C)cc4)CC[C@@H]23)[C@@]2(C)CC[C@@H](O)C[C@@H]12 [Example 45],< 100,235
CC[C@H]1[C@@H](O)[C@@H]2[C@H](CC[C@]3(C)[C@@H]([C@H](C)CCOC(=O)NCCCN4CCOCC4)CC[C@@H]23)[C@@]2(C)CC[C@@H](O)C[C@@H]12 [Example 152],100 to 1000,276
CC[C@H]1[C@@H](O)[C@@H]2[C@H](CC[C@]3(C)[C@@H]([C@H](C)CCOC(=O)N4CCC[C@H](CO)C4)CC[C@@H]23)[C@@]2(C)CC[C@@H](O)C[C@@H]12 [Example 203],100 to 1000,380
CCOC(=O)CNC(=O)OCC[C@@H](C)[C@H]1CC[C@H]2[C@@H]3[C@H](O)[C@H](CC)[C@@H]4C[C@H](O)CC[C@]4(C)[C@H]3CC[C@]12C [Example 156],100 to 1000,193
CC[C@H]1[C@@H](O)[C@@H]2[C@H](CC[C@]3(C)[C@@H]([C@H](C)CCOC(=O)N4CCCC4)CC[C@@H]23)[C@@]2(C)CC[C@@H](O)C[C@@H]12 [Example 147],< 100,228
CC[C@H]1[C@@H](O)[C@@H]2[C@H](CC[C@]3(C)[C@@H]([C@H](C)COC(=O)NS(=O)(=O)c4ccc(C(C)(C)C)s4)CC[C@@H]23)[C@@]2(C)CC[C@@H](O)C[C@@H]12 [Example 44-j],< 100,170
CCC(CC)S(=O)(=O)NC(=O)OCC[C@@H](C)[C@H]1CC[C@H]2[C@@H]3[C@H](O)[C@H](CC)[C@@H]4C[C@H](O)CC[C@]4(C)[C@H]3CC[C@]12C [Example 96],< 100,388
CC[C@H]1[C@@H](O)[C@@H]2[C@H](CC[C@]3(C)[C@@H]([C@H](C)COC(=O)NS(=O)(=O)c4ccc(-c5ccc(C(F)(F)F)cc5)s4)CC[C@@H]23)[C@@]2(C)CC[C@@H](O)C[C@@H]12 [Example 27],100 to 1000,173
CC[C@H]1[C@@H](O)[C@@H]2[C@H](CC[C@]3(C)[C@@H]([C@H](C)CCOC(=O)NS(=O)(=O)c4ccc(C(F)(F)F)cc4)CC[C@@H]23)[C@@]2(C)CC[C@@H](O)C[C@@H]12 [Example 79],< 100,376
CC[C@H]1[C@@H](O)[C@@H]2[C@H](CC[C@]3(C)[C@@H]([C@H](C)CCCOC(=O)N4CCCCC4)CC[C@@H]23)[C@@]2(C)CC[C@@H](O)C[C@@H]12 [Example 165],1000 to 10000,158
CC[C@H]1[C@@H](O)[C@@H]2[C@H](CC[C@]3(C)[C@@H]([C@H](C)CCOC(=O)NS(=O)(=O)CCc4cccc(Cl)c4)CC[C@@H]23)[C@@]2(C)CC[C@@H](O)C[C@@H]12 [Example 91],100 to 1000,313
CC[C@H]1[C@@H](O)[C@@H]2[C@H](CC[C@]3(C)[C@@H]([C@H](C)CCOC(=O)NS(=O)(=O)c4cccc(Cl)c4)CC[C@@H]23)[C@@]2(C)CC[C@@H](O)C[C@@H]12 [Example 65],< 100,322
CC[C@H]1[C@@H](O)[C@@H]2[C@H](CC[C@]3(C)[C@@H]([C@H](C)CCOC(=O)NCCC4CC4)CC[C@@H]23)[C@@]2(C)CC[C@@H](O)C[C@@H]12 [Example 177],100 to 1000,460
CC[C@H]1[C@@H](O)[C@@H]2[C@H](CC[C@]3(C)[C@@H]([C@H](C)CCOC(=O)NS(=O)(=O)N4CC(F)(F)C4)CC[C@@H]23)[C@@]2(C)CC[C@@H](O)C[C@@H]12 [Example 104-j],< 100,327

SMILES,EC50 [nM],Emax [%]
CC[C@H]1[C@@H](O)[C@@H]2[C@H](CC[C@]3(C)[C@@H]([C@H](C)CCOC(=O)NS(=O)(=O)c4cccc5ccccc45)CC[C@@H]23)[C@@]2(C)CC[C@@H](O)C[C@@H]12 [Example 81],< 100,372
CC[C@H]1[C@@H](O)[C@@H]2[C@H](CC[C@]3(C)[C@@H]([C@H](C)COC(=O)NS(=O)(=O)c4ccc5ncccc5c4)CC[C@@H]23)[C@@]2(C)CC[C@@H](O)C[C@@H]12 [Example 23],< 100,182
CC[C@H]1[C@@H](O)[C@@H]2[C@H](CC[C@]3(C)[C@@H]([C@H](C)CCOC(=O)NS(=O)(=O)c4cnccn4)CC[C@@H]23)[C@@]2(C)CC[C@@H](O)C[C@@H]12 [Example 99],1000 to 10000,51
CC[C@H]1[C@@H](O)[C@@H]2[C@H](CC[C@]3(C)[C@@H]([C@H](C)CCOC(=O)NS(=O)(=O)CCOC)CC[C@@H]23)[C@@]2(C)CC[C@@H](O)C[C@@H]12 [Example 83],100 to 1000,275
CC[C@H]1[C@@H](O)[C@@H]2[C@H](CC[C@]3(C)[C@@H]([C@H](C)CCOC(=O)NS(=O)(=O)CC(C)(C)C)CC[C@@H]23)[C@@]2(C)CC[C@@H](O)C[C@@H]12 [Example 103],< 100,294
CC[C@H]1[C@@H](O)[C@@H]2[C@H](CC[C@]3(C)[C@@H]([C@H](C)COC(=O)NS(=O)(=O)c4ccc(O)cc4)CC[C@@H]23)[C@@]2(C)CC[C@@H](O)C[C@@H]12 [Example 39],100 to 1000,182
CC[C@H]1[C@@H](O)[C@@H]2[C@H](CC[C@]3(C)[C@@H]([C@H](C)CCOC(=O)NS(=O)(=O)c4ccccc4C(F)(F)F)CC[C@@H]23)[C@@]2(C)CC[C@@H](O)C[C@@H]12 [Example 80],100 to 1000,363
CC[C@H]1[C@@H](O)[C@@H]2[C@H](CC[C@]3(C)[C@@H]([C@H](C)CCOC(=O)N4CCC(Cc5ccccc5)CC4)CC[C@@H]23)[C@@]2(C)CC[C@@H](O)C[C@@H]12 [Example 161],100 to 1000,226
CC[C@H]1[C@@H](O)[C@@H]2[C@H](CC[C@]3(C)[C@@H]([C@H](C)CCOC(=O)N4CCC(C(N)=O)CC4)CC[C@@H]23)[C@@]2(C)CC[C@@H](O)C[C@@H]12 [Example 171],100 to 1000,179
CC[C@H]1[C@@H](O)[C@@H]2[C@H](CC[C@]3(C)[C@@H]([C@H](C)CCOC(=O)NCCSC)CC[C@@H]23)[C@@]2(C)CC[C@@H](O)C[C@@H]12 [Example 140],100 to 1000,246
CC[C@H]1[C@@H](O)[C@@H]2[C@H](CC[C@]3(C)[C@@H]([C@H](C)CCCOC(=O)NS(=O)(=O)c4ccc(C)cc4)CC[C@@H]23)[C@@]2(C)CC[C@@H](O)C[C@@H]12 [Example 1],100 to 1000,422
CC[C@H]1[C@@H](O)[C@@H]2[C@H](CC[C@]3(C)[C@@H]([C@H](C)CCOC(=O)NCC4CCCCC4)CC[C@@H]23)[C@@]2(C)CC[C@@H](O)C[C@@H]12 [Example 188],100 to 1000,459
CC[C@H]1[C@@H](O)[C@@H]2[C@H](CC[C@]3(C)[C@@H]([C@H](C)COC(=O)NS(=O)(=O)c4cnc5ccccc5c4)CC[C@@H]23)[C@@]2(C)CC[C@@H](O)C[C@@H]12 [Example 24],< 100,193
CC[C@H]1[C@@H](O)[C@@H]2[C@H](CC[C@]3(C)[C@@H]([C@H](C)COC(=O)NS(=O)(=O)c4ccc(N5CCOCC5)cc4)CC[C@@H]23)[C@@]2(C)CC[C@@H](O)C[C@@H]12 [Example 19],< 100,219
CC[C@H]1[C@@H](O)[C@@H]2[C@H](CC[C@]3(C)[C@@H]([C@H](C)CCOC(=O)NS(=O)(=O)c4ccc5ccccc5c4)CC[C@@H]23)[C@@]2(C)CC[C@@H](O)C[C@@H]12 [Example 88],< 100,236

# — patent publication US10457703B2, “Bile acid derivatives as FXR/TGR5 agonists and methods of use thereof” (ENANTA PHARMACEUTICALS, INC., priority 2015, dated 2019)
